Assay results taken from patent publication US20190136191A1, “Methods of Producing Specialized Cardio-Like Cells from Stem Cells” (Emory University, priority 2016, published 2019).

Assays:
[1] = system: Human ESCs (H9); experiment: Pan-cardiac myocyte lineage formation from hESCs (cTnT+ cells); format: cell-based
From the text: (§1) Human ESCs (H9) were differentiated to cardiac lineage by treatment with Activin A, BMP4 and bFGF (ABF, control group) for two days (day 1-2) Mesoderm formation was identified by brachyury (T)+ cells, and the ensuing pan-cardiac myocyte lineage was marked by cTnT+ cells. In control, this process was highly efficient, reaching 75% and 82%, respectively. […] In contrast, late (day 6-9) activation of RA (Late-RA) led to >90% cTnT+ population. […] Furthermore, the Late-RA cardiomyocytes expressed higher transcript and protein levels of the first heart field (FHF) markers, NKX2.5, TBX5 and HCN4.

[2] = system: Human ESCs (H9); experiment: Mesoderm formation during cardiac differentiation of hESCs (brachyury (T)+ cells); format: cell-based
From the text: as §1

[3] = system: Human ESCs (H9); experiment: Chamber and heart field marker expression in hESC-derived cardiomyocytes; format: cell-based
From the text: IRX4 and HRT2 are ventricular marker. CoupTFII is an atrial marker. NKX2.5, TBX5, HCN4 are markers of the first heart field, which becomes the left ventricular and atrial cardiac myocytes.
Is11, Mef2c, Fgf8, and Fgf10 are markers of the second heart field, which become right ventricular cardiac myocytes.
as §1
Reported are specific and robust derivation of the left ventricular-like cells by activating RA signaling during the late stage of hESC differentiation.

[4] = system: hESCs; experiment: Differentiation protocols of hESCs to cardio-like cell subtypes (AFB, AFB+RA, Ri+AFB+RA); format: cell-based, human
Procedure: To create the cardio-like cells from hESCs, at the early stage (day 0-3), hESCs were treated with ActivinA, bFGF and BMP4 to induce mesoderm and cardiac mesoderm cells generation. […] Wnt inhibitor promoted cardiac progenitor cells into cardio-like cells during day 5-11.
To create atrial-like cells from hESCs, at the early stage (day 0-3), hESCs were treated with ActivinA, bFGF and BMP4 to induce mesoderm and cardiac mesoderm cells generation. […] Wnt inhibitor promoted differentiation of cardiac progenitor cells into cardio-like cells during day 5-11.
To create first heart field (FHF) derived left ventricular-like cells from hESCs, at the early stage (day 0-3), hESCs were treated with ActivinA, bFGF, BMP4 and additional short time (day 0-1) treatment of BMS4.93(Ri) to induce mesoderm and cardiac mesoderm cells generation. […] Wnt inhibitor promoted cardiac progenitor cells into cardiomyocytes during day 5-11.

[5] = early inhibition of RA signaling
[6] = Late-RA cardiomyocytes compared to control

## CC1(C)CC=C(C#Cc2ccccc2)c2cc(/C=C/c3ccc(C(=O)O)cc3)ccc21 [BMS-189493, (E)-4-(2-(5,5-dimethyl-8-(phenylethynyl)-5,6-dihydronaphthalen-2-yl)vinyl)benzoic acid]
[1]; [5]
  Mesodermal cells that failed to become cardiac myocytes: 86%
[2]; [5]
  Mesoderm induction: increased mesoderm induction

## CC(C=CC1=C(C)CCCC1(C)C)=CC=CC(C)=CC(=O)O [RA, 3,7-dimethyl-9-(2,6,6-trimethylcyclohexen-1-yl)nona-2,4,6,8-tetraenoic acid]
[1]; late (day 6-9) activation of RA (Late-RA)
  cTnT+ population: > 90%
[2]; early activation of RA
  Generation of mesoderm lineage: failed to generate mesoderm lineage
[3]; Late-RA cardiomyocytes
  First heart field marker HCN4 transcript and protein levels: higher
  First heart field marker NKX2.5 transcript and protein levels: higher
  First heart field marker TBX5 transcript and protein levels: higher
[3]; [6]
  Atrial marker CoupTFII expression: down-regulated
  Second heart field marker FGF8 expression: downregulated
  Second heart field marker FGF10 expression: downregulated
  Second heart field marker ISL1 expression: downregulated
  Ventricular marker HRT2 expression: up-regulated
  Ventricular marker IRX4 expression: up-regulated
[4]; AFB+RA protocol, RA during day 5-8, no early RA inhibitor
  Cell subtype specified: specified atria-like subtypes
[4]; Ri+AFB+RA protocol, RA during day 5-8 after Ri day 0-1
  Cell subtype specified: specified first heart field (FHF) derived left ventricular-like cell subtypes

B1: Noggin: secreted protein that binds and inactivates TGF-beta superfamily signaling proteins (protein, UniProt Q13253 28-232, looked up)
Noggin: QHYLHIRPAPSDNLPLVDLIEHPDPIFDPKEKDLNETLLRSLLGGHYDPGFMATSPPEDRPGGGGGAAGGAEDLAELDQLLRQRPSGAMPSEIKGLEFSEGLAQGKKQRLSKKLRRKLQMWLWSQTFCPVLYAWNDLGSRFWPRYVKVGSCFSKRSCSVPEGMVCKPSKSVHLTVLRWRCQRRGGQRCGWIPIQYPIISECKCSC
[4]; Noggin treatment during day 3-5
  Effect on cardiac lineage cells: expanded more cardiac lineage cells
